The values below are quoted from earlier work in patent US10328067B2, “Pharmaceutical oral dose formulation and composition of matter” (priority 2016, dated 2019).

Molecules are shown by their SMILES.

The conditions of this data set: result in words; p-glycoprotein substrate.

Turning to `CC[C@]1(O)C[C@@H]2CN(CCc3c([nH]c4ccccc34)[C@@](C(=O)OC)(c3cc4c(cc3OC)N(C)[C@H]3[C@@](O)(C(=O)OC)[C@H](OC(C)=O)[C@]5(CC)C=CCN6CC[C@]43[C@@H]65)C2)C1` [vinblastine], the intestinal absorption entry was “negligible intestinal absorption”.
